Earlier results in US11441198B2 (priority 2016, dated 2022).

Tests used:
influenza virus = conditions: double-blind randomized placebo-controlled trial

In the case of `CC(=O)Oc1ccccc1C(=O)Nc1ncc([N+](=O)[O-])s1` [Nitazoxanide], the symptoms (influenza virus) is listed as “associated with improvement in symptoms”.
In the case of `COc1c(C)c2c(c(O)c1C/C=C(\C)CCC(=O)O)C(=O)OC2` [mycophenolic acid], the “antiviral activity against influenza viruses” value (influenza viruses) is given as “has antiviral activity”.
